pIC50: −log10 of the molar value.
target: recombinant protein MYT1 (Homo sapiens (Human), UniProt Q99640); experiment: In vitro assay for inhibiting MYT1 kinase activity (ADP-GLO); type: biochemical; details: 10 μM ATP, read-out: Inhibitory activity against recombinant protein MYT1 IC50
Description: Recombinant MYT1 protein and the compounds were pre-incubated at room temperature for 15 min, and 10 μM ATP was then added to start the reaction. The mixture was incubated at room temperature for another 60 min, and the ADP-GLO reagent from Promega was then added. The resulting mixture was incubated in the dark for 40 min, a detection solution was then added, and the mixture was incubated for another 45-60 min. The chemiluminescence was determined using ENVISION. The inhibition rate and IC50 were calculated compared to the DMSO group.

Chain of recombinant protein MYT1 (Q99640 whole entry): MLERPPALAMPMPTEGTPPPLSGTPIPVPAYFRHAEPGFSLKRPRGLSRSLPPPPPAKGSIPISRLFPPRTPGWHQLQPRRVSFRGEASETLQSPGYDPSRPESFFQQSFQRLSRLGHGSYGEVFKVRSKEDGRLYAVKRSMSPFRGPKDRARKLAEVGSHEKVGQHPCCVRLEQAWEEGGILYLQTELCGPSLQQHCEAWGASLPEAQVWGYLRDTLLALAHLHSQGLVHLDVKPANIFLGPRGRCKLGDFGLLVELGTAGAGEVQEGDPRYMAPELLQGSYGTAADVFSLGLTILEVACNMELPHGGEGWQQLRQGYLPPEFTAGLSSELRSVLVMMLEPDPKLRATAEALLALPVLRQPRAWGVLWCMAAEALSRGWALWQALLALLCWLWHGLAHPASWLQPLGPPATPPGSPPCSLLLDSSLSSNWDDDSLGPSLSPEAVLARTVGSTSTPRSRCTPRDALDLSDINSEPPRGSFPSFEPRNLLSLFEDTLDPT

Row | pIC50 | SMILES
1 | ≥ 6.70 | Cc1ccc(O)c(C)c1-n1c(N)c(C(N)=O)c2cc3ccsc3nc21 [Compound 74]
2 | ≥ 6.70 | Cc1ccc(O)c(C)c1-n1c(N)c(C(N)=O)c2cc3scnc3nc21 [Compound 70]
3 | ≥ 6.70 | Cc1ccc(O)c(C)c1-n1c(N)c(C(N)=O)c2cc3c(nc21)COC3 [Compound 15]
4 | ≥ 6.70 | Cc1cc2c(C(N)=O)c(N)n(-c3c(C)cnc(O)c3C)c2nc1C [Compound 177]
5 | ≥ 6.70 | Cc1ccc(O)c(C)c1-n1c(N)c(C(N)=O)c2cc3c(nc21)C=CCC3 [Compound 114]
6 | ≥ 6.70 | Cc1cc2c(C(N)=O)c(N)n(-c3c(C)c(O)cc(Br)c3C)c2nc1C [Compound 196]
7 | ≥ 6.70 | Cc1ccc(O)c(C)c1-n1c(N)c(C(N)=O)c2cc3sccc3nc21 [Compound 75]
8 | ≥ 6.70 | Cc1nc2c(cc1C#N)c(C(N)=O)c(N)n2-c1c(C)c(O)cc(F)c1C [Compound 137]
9 | ≥ 6.70 | Cc1ccc(O)c(C)c1-n1c(N)c(C(N)=O)c2cc3c(nc21)CCCO3 [Compound 26]
10 | ≥ 6.70 | Cc1ccc(O)c(C)c1-n1c(N)c(C(N)=O)c2cc3c(nc21)NCCC3 [Compound 103]
11 | ≥ 6.70 | Cc1c(O)cc(F)c(C)c1-n1c(N)c(C(N)=O)c2cc3c(nc21)COC3 [Compound 131]
12 | ≥ 6.70 | Cc1cc2c(C(N)=O)c(N)n(-c3c(C)c(O)cc(C#N)c3C)c2nc1C [Compound 220]
13 | ≥ 6.70 | Cc1ccc(O)c(C)c1-n1c(N)c(C(N)=O)c2cc3ccn(C)c3nc21 [Compound 71]
14 | ≥ 6.70 | Cc1c(O)cc(F)c(C)c1-n1c(N)c(C(N)=O)c2cc3c(nc21)CCC3 [Compound 199]
15 | ≥ 6.70 | Cc1cc2c(cc1C#N)c(C(N)=O)c(N)n2-c1c(C)c(O)cc(F)c1C [Compound 160]
16 | ≥ 6.70 | Cc1ccc(O)c(C)c1-n1c(N)c(C(N)=O)c2cc3c(nc21)COCC3 [Compound 32]
17 | ≥ 6.70 | Cc1ccc(O)c(C)c1-n1c(N)c(C(N)=O)c2cnc(C#N)cc21 [Compound 172]
18 | ≥ 6.70 | Cc1ccc(O)c(C)c1-n1c(N)c(C(N)=O)c2cc3c(nc21)CNC3 [Compound 84]
19 | ≥ 6.70 | Cc1ccc(O)c(C)c1-n1c(N)c(C(N)=O)c2cc3ccncc3nc21 [Compound 44]
20 | ≥ 6.70 | Cc1cc2c(C(N)=O)c(N)n(-c3c(C)c(O)cc(F)c3C)c2nc1C#N [Compound 143]
21 | ≥ 6.70 | Cc1ccc(O)c(C)c1-n1c(N)c(C(N)=O)c2cc3ocnc3nc21 [Compound 68]

Row | pIC50 | SMILES
22 | ≥ 6.70 | Cc1ccc(O)c(C)c1-n1c(N)c(C(N)=O)c2cc3c(nc21)CCC=C3 [Compound 112]
23 | ≥ 6.70 | Cc1nc2c(cc1C#N)c(C(N)=O)c(N)n2-c1c(C(F)(F)F)ccc(O)c1C [Compound 184]
24 | ≥ 6.70 | Cc1cc2c(C(N)=O)c(N)n(-c3c(C)cc(F)c(O)c3C)c2nc1C#N [Compound 146]
25 | ≥ 6.70 | Cc1ccc(O)c(C)c1-n1c(N)c(C(N)=O)c2cc3c(nc21)CCN(C)C3 [Compound 96]
26 | ≥ 6.70 | Cc1cc2c(C(N)=O)c(N)n(-c3c(C)c(F)cc(O)c3Cl)c2nc1C [Compound 25]
27 | ≥ 6.70 | Cc1ccc(O)c(C)c1-n1c(N)c(C(N)=O)c2cc3c(ncn3C)nc21 [Compound 66]
28 | ≥ 6.70 | Cc1c(O)cc(F)c(C)c1-n1c(N)c(C(N)=O)c2cc3c(nc21)CCCC3 [Compound 202]
29 | ≥ 6.70 | Cc1ccc(O)c(C)c1-n1c(N)c(C(N)=O)c2cc3c(nc21)OCC3 [Compound 20]
30 | ≥ 6.70 | Cc1c(O)cc(F)c(C)c1-n1c(N)c(C(N)=O)c2cc3c(nc21)C=CC3 [Compound 214]
31 | ≥ 6.70 | Cc1cc2c(C(N)=O)c(N)n(-c3c(C)cc(F)c(O)c3Cl)c2nc1C [Compound 8]
32 | ≥ 6.70 | Cc1cc2c(C(N)=O)c(N)n(-c3c(C)c(O)cc4c3CCC4)c2nc1C [Compound 115]
33 | ≥ 6.70 | Cc1ccc(O)c(C)c1-n1c(N)c(C(N)=O)c2cc3c(nc21)CN(C)CC3 [Compound 99]
34 | ≥ 6.70 | Cc1ccc(O)c(C)c1-n1c(N)c(C(N)=O)c2cc3c(nc21)CCCN3 [Compound 102]
35 | ≥ 6.70 | Cc1ccc(O)c(C)c1-n1c(N)c(C(N)=O)c2cc3cn(C)cc3nc21 [Compound 73]
36 | ≥ 6.70 | Cc1ccc(O)c(C)c1-n1c(N)c(C(N)=O)c2cc3nccnc3nc21 [Compound 53]
37 | ≥ 6.70 | Cc1cc2c(C(N)=O)c(N)n(-c3c(C)c(O)cc4c3COC4)c2nc1C [Compound 124]
38 | ≥ 6.70 | Cc1ccc(O)c(C)c1-n1c(N)c(C(N)=O)c2cc3cnncc3cc21 [Compound 59]
39 | ≥ 6.70 | Cc1cc(F)c(O)c(C)c1-n1c(N)c(C(N)=O)c2cc3ccccc3nc21 [Compound 180]
40 | ≥ 6.70 | Cc1cc2c(C(N)=O)c(N)n(-c3c(C(F)(F)F)ccc(O)c3C)c2nc1C#N [Compound 186]
41 | ≥ 6.70 | Cc1ccc(O)c(C)c1-n1c(N)c(C(N)=O)c2cc3c(nc21)CCN3 [Compound 77]
42 | ≥ 6.70 | Cc1c(O)cc(F)c(C)c1-n1c(N)c(C(N)=O)c2cc3c(nc21)CC=C3 [Compound 211]

Row | pIC50 | SMILES
43 | ≥ 6.70 | Cc1cc2c(C(N)=O)c(N)n(-c3c(C)c(O)cc(F)c3Cl)c2nc1C [Compound 24]
44 | ≥ 6.70 | Cc1ccc(O)c(C)c1-n1c(N)c(C(N)=O)c2cc3c(nc21)CCOC3 [Compound 29]
45 | ≥ 6.70 | Cc1cc2c(C(N)=O)c(N)n(-c3c(C)c(C)cc(O)c3C)c2nc1C [Compound 205]
46 | ≥ 6.70 | Cc1cc(F)c(O)c(C)c1-n1c(N)c(C(N)=O)c2cc(C#N)c(C)nc21 [Compound 140]
47 | ≥ 6.70 | Cc1ccc(O)c(C)c1-n1c(N)c(C(N)=O)c2cc3c(nc21)N(C)CCC3 [Compound 105]
48 | ≥ 6.70 | Cc1ccc(O)c(C)c1-n1c(N)c(C(N)=O)c2cc3c(nc21)CC=CC3 [Compound 113]
49 | ≥ 6.70 | Cc1ccc(O)c(C)c1-n1c(N)c(C(N)=O)c2cc3c(nc21)CC=C3 [Compound 106]
50 | ≥ 6.70 | Cc1cc2c(C(N)=O)c(N)n(-c3c(C)cc(F)c(O)c3C)c2nc1C (single isomer, unassigned) [Compound 5]
51 | ≥ 6.70 | Cc1ccc(O)c(C)c1-n1c(N)c(C(N)=O)c2cc3ccoc3nc21 [Compound 61]
52 | ≥ 6.70 | Cc1cc2c(C(N)=O)c(N)n(-c3c(C)cc4c(c3C)NCC4)c2nc1C [Compound 149]
53 | ≥ 6.70 | Cc1cc2c(C(N)=O)c(N)n(-c3c(Cl)cc(F)c(O)c3C)c2nc1C [Compound 4]
54 | ≥ 6.70 | Cc1cc2c(C(N)=O)c(N)n(-c3c(C)cc4c(c3C)OCC4)c2nc1C [Compound 152]
55 | ≥ 6.70 | Cc1cc2c(C(N)=O)c(N)n(-c3c(C)c(O)cc4occc34)c2nc1C [Compound 129]
56 | ≥ 6.70 | Cc1cc2c(C(N)=O)c(N)n(-c3c(C)cc(F)c(O)c3C)c2cc1C#N [Compound 169]
57 | ≥ 6.70 | Cc1cc2c(cc1C#N)c(C(N)=O)c(N)n2-c1c(C)ccc(O)c1C [Compound 154]
58 | ≥ 6.70 | Cc1ccc(O)c(C)c1-n1c(N)c(C(N)=O)c2cc(C#N)c(C)nc21 [Compound 9]
59 | ≥ 6.70 | Cc1cc2c(C(N)=O)c(N)n(-c3c(C)c(O)cc(I)c3C)c2nc1C [Compound 217]
60 | ≥ 6.70 | Cc1cc2c(C(N)=O)c(N)n(-c3c(C)ccc(O)c3C)c2cc1C#N [Compound 157]
61 | ≥ 6.70 | Cc1cc(F)c(O)c(C)c1-n1c(N)c(C(N)=O)c2cc3c(nc21)COC3 [Compound 134]
62 | ≥ 6.70 | Cc1ccc(O)c(C)c1-n1c(N)c(C(N)=O)c2cc3ncsc3nc21 [Compound 69]
63 | ≥ 6.70 | Cc1cc2c(C(N)=O)c(N)n(-c3c(C)ccc(O)c3C(F)(F)F)c2nc1C#N [Compound 187]

Row | pIC50 | SMILES
64 | ≥ 6.70 | Cc1cc2c(cc1C#N)c(C(N)=O)c(N)n2-c1c(C)cc(F)c(O)c1C [Compound 163]
65 | ≥ 6.70 | COc1cc(O)c(C)c(-n2c(N)c(C(N)=O)c3cc(C)c(C)nc32)c1C [Compound 223]
66 | ≥ 6.70 | Cc1ccc(O)c(C)c1-n1c(N)c(C(N)=O)c2cc3c(nc21)OCO3 [Compound 38]
67 | ≥ 6.70 | Cc1cc2c(C(N)=O)c(N)n(-c3c(C)c(O)cc4ccoc34)c2nc1C [Compound 130]
68 | ≥ 6.70 | Cc1ccc(O)c(C)c1-n1c(N)c(C(N)=O)c2cc3c(nc21)CN(C)C3 [Compound 93]
69 | ≥ 6.70 | Cc1ccc(O)c(C)c1-n1c(N)c(C(N)=O)c2cc3c(nc21)CCCN3C [Compound 104]
70 | ≥ 6.70 | Cc1cc2c(C(N)=O)c(N)n(-c3c(C)c(O)cc4c3CCO4)c2nc1C [Compound 121]
71 | ≥ 6.70 | Cc1cc2c(C(N)=O)c(N)n(-c3c(C)ccc(O)c3C)c2c(C#N)c1C [Compound 173]
72 | ≥ 6.70 | Cc1ccc(O)c(C)c1-n1c(N)c(C(N)=O)c2cc3c(nc21)C=CC3 [Compound 109]
73 | ≥ 6.70 | Cc1ccc(O)c(C)c1-n1c(N)c(C(N)=O)c2cc3c(nc21)CCN3C [Compound 87]
74 | ≥ 6.70 | Cc1ccc(O)c(C)c1-n1c(N)c(C(N)=O)c2cc3c(nc21)NCC3 [Compound 80]
75 | ≥ 6.70 | Cc1cc2c(C(N)=O)c(N)n(-c3c(C)c(O)cc4c3OCC4)c2nc1C [Compound 118]
76 | ≥ 6.70 | Cc1ccc(O)c(C)c1-n1c(N)c(C(N)=O)c2cc3nc[nH]c3nc21 [Compound 64]
77 | ≥ 6.70 | Cc1ccc(O)c(C)c1-n1c(N)c(C(N)=O)c2cc3occc3nc21 [Compound 62]
78 | ≥ 6.70 | Cc1ccc(O)c(C)c1-n1c(N)c(C(N)=O)c2cc3c(ccn3C)nc21 [Compound 72]
79 | ≥ 6.70 | Cc1ccc(O)c(C)c1-n1c(N)c(C(N)=O)c2cc3ncn(C)c3nc21 [Compound 65]
80 | ≥ 6.70 | Cc1ccc(O)c(C)c1-n1c(N)c(C(N)=O)c2cc3ncoc3nc21 [Compound 67]
81 | ≥ 6.70 | Cc1ccc(O)c(C)c1-n1c(N)c(C(N)=O)c2cc3cocc3nc21 [Compound 63]
82 | ≥ 6.70 | Cc1ccc(O)c(C)c1-n1c(N)c(C(N)=O)c2cc3c(nc21)CCO3 [Compound 18]
83 | ≥ 6.70 | Cc1ccc(O)c(C)c1-n1c(N)c(C(N)=O)c2cc3cnccc3nc21 [Compound 47]

Reference: patent US20260001879A1, “COMPOUNDS AS MYT1 INHIBITORS” (WIGEN BIOMMEDICINE TECHNOLOGY (SHANGHAI) CO., LTD., priority 2022, published 2026)
